Source: ChEMBL document CHEMBL2321853, “Novel acylethanolamide derivatives that modulate body weight through enhancement of hypothalamic pro-opiomelanocortin (POMC) and/or decreased neuropeptide Y (NPY)” (J Med Chem, 2013)
Active and inactive are the calls of the source. No cut-off for these calls is given here.

Columns and labels:
[1] = test system: Mus musculus; experiment: Antiobesity activity in Sabra mouse assessed as reduction in body weight at 1 mg/kg, ip administered on day 0, 10, 11, 12, 24, 29 measured on day 39 relative to control; format: functional; design: scale not given: the % may be the effect or the level left; details: route intraperitoneal
[2] = test system: Mus musculus; experiment: Antiobesity activity in Sabra mouse assessed as reduction in body weight at 1 mg/kg, ip administered on day 0, 10, 11, 12, 24, 29 measured on day 24 relative to control; format: functional; design: scale not given: the % may be the effect or the level left; details: route intraperitoneal
[3] = test system: Mus musculus; experiment: Antiobesity activity in C57BL/6 mouse assessed as change in cholesterol level at 5 mg/kg, ip measured on day 36 (reference value: 86.58 mg/dL); format: functional; details: route intraperitoneal
[4] = test system: Mus musculus; experiment: Antiobesity activity in C57BL/6 mouse assessed as change in triglyceride level at 5 mg/kg, ip measured on day 36 (reference value: 0.92 mg/dL); format: functional; details: route intraperitoneal
[5] = test system: Mus musculus; experiment: Antiobesity activity in C57BL/6 mouse assessed as change in glucose level in blood at 5 mg/kg, ip administered on day 1, 4, 5, 7, 17, 15, 19 measured on day 5 relative to control; format: functional; details: route intraperitoneal
[6] = test system: Mus musculus; experiment: Antiobesity activity in C57BL/6 mouse assessed as change in glucose level in blood at 5 mg/kg, ip administered on day 1, 4, 5, 7, 17, 15, 19 measured on day 3 relative to control; format: functional; details: route intraperitoneal
[7] = test system: Mus musculus; experiment: Antiobesity activity in C57BL/6 mouse assessed as weight loss at 5 mg/kg, ip administered on day 1, 4, 5, 7, 17, 15, 19 measured on day 17 relative to control; format: functional; details: route intraperitoneal
[8] = test system: Mus musculus; experiment: Antiobesity activity in C57BL/6 mouse assessed as weight loss at 5 mg/kg, ip administered on day 1, 4, 5, 7, 17, 15, 19 measured on day 8 relative to control; format: functional; details: route intraperitoneal
[9] = test system: Mus musculus; experiment: Antiobesity activity in Sabra mouse assessed as change in body weight at 1 mg/kg, ip administered on day 8, 12 and 43 measured on day 50 relative to control; format: functional; details: route intraperitoneal
[10] = test system: Mus musculus; experiment: Antiobesity activity in Sabra mouse assessed as change in body weight at 1 mg/kg, ip administered on day 8, 12 and 43 measured on day 36 relative to control; format: functional; details: route intraperitoneal
[11] = test system: Mus musculus; experiment: Antiobesity activity in Sabra mouse assessed as change in body weight at 1 mg/kg, ip administered on day 8, 12 and 43 measured on day 33 relative to control; format: functional; details: route intraperitoneal
[12] = test system: Mus musculus; experiment: Hepatotoxicity in Sabra mouse assessed as centrilobular apoptotic changes at 1 mg/kg, ip administered on day 8, 9, 10, 11, 14, 18, 24 and 32 by hematoxylin and eosin staining-based histopathological analysis; format: toxicity, organism-based; design: dose 1 mg/kg, route intraperitoneal; details: in vivo
[13] = biological target: T1, Fatty-acid amide hydrolase 1 (Rattus norvegicus) (UniProt P97612); experiment: Inhibition of rat brain FAAH using [3H]anandamide as substrate at 10 uM preincubated for 15 mins before substrate addition relative to control
T1 sequence (whole entry): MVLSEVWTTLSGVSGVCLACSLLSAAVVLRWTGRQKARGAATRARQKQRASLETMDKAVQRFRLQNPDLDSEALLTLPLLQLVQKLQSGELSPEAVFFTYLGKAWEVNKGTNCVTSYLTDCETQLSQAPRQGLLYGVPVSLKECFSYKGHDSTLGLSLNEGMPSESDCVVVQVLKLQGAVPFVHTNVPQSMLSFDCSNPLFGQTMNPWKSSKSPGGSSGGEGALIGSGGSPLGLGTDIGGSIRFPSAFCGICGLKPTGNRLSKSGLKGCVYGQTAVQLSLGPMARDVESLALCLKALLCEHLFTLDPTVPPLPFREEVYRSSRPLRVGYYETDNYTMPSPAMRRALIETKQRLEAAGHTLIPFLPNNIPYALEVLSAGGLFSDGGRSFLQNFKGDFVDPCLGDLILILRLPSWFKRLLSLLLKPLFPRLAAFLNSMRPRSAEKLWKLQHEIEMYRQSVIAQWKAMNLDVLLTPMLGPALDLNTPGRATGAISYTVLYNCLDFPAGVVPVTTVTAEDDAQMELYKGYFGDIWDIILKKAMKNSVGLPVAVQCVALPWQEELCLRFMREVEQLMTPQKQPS

[14] = biological target: Cannabinoid receptor 2 (Homo sapiens) (UniProt P34972); experiment: Displacement of [3H]WIN-55,212-2 from human recombinant CB2 receptor expressed in CHO-K1 cells at 10 uM relative to control; format: cell-based
Sequence of Cannabinoid receptor 2 (Homo sapiens) (P34972 whole entry): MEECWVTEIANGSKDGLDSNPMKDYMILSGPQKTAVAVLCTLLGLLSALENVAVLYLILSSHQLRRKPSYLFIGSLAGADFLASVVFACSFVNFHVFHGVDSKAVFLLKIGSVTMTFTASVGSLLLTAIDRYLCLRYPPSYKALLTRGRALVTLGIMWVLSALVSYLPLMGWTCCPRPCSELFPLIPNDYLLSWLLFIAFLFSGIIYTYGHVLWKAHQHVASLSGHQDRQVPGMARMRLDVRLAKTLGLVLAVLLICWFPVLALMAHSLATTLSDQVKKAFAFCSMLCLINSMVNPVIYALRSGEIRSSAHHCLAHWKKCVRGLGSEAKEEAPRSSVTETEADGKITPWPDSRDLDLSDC

[15] = biological target: Cannabinoid receptor 1 (Homo sapiens) (UniProt P21554); experiment: Displacement of [3H]SR141716A from human CB1 receptor expressed in rat Chem-1 cell membrane at 10 uM relative to control; format: cell membranes
Sequence of Cannabinoid receptor 1 (Homo sapiens) (P21554 whole entry): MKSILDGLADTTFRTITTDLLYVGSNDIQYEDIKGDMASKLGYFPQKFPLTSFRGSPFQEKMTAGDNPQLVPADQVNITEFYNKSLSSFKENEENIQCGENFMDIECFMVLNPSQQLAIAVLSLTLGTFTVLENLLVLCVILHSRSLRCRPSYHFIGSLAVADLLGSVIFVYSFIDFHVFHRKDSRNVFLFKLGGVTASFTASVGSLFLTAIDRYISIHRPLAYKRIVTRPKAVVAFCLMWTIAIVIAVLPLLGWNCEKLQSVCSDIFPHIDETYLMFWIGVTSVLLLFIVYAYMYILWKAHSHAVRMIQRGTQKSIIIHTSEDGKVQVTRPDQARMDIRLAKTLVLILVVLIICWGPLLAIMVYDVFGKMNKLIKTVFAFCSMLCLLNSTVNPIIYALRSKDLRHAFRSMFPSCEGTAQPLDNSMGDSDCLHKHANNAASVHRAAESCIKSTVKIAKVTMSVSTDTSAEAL

[16] = test system: Mus musculus; experiment: Antiobesity activity in high fat diet fed C57BL/6 mouse assessed as reduction in body weight at 1 mg/kg, ip administered on day 3, 6, 8, 9, 10 measured on day 8 relative to control; format: functional; design: scale not given: the % may be the effect or the level left; details: route intraperitoneal
[17] = test system: Hypothalamus; experiment: Effect on POMC gene expression in Sabra mouse hypothalamus assessed as increase in mRNA level at 10 mg/kg, ip administered on day 6 to 10 measured on day 16 by RT-PCR analysis relative to control; format: functional; details: route intraperitoneal
[18] = test system: Mus musculus; experiment: Antiobesity activity in Sabra mouse assessed as reduction in body weight at 10 mg/kg, administered for 6 to 51 days via oral gavage measured on day 52 relative to control; format: functional, organism-based; design: dose 10 mg/kg
[19] = test system: Mus musculus; experiment: Antiobesity activity in Sabra mouse assessed as change in body weight at 1 mg/kg, ip administered on day 8, 9, 10, 11, 14, 18, 24 and 32 measured on day 39 relative to control; format: functional; details: route intraperitoneal
[20] = test system: Mus musculus; experiment: Antiobesity activity in Sabra mouse assessed as change in body weight at 1 mg/kg, ip administered on day 8, 9, 10, 11, 14, 18, 24 and 32 measured on day 14 relative to control; format: functional; details: route intraperitoneal
[21] = test system: Mus musculus; experiment: Antiobesity activity in Sabra mouse assessed as change in body weight at 1 mg/kg, ip administered on day 8, 9, 10, 11, 14, 18, 24 and 32 measured on day 21 relative to control; format: functional; details: route intraperitoneal
[22] = test system: Mus musculus; experiment: Antiobesity activity in Sabra mouse assessed as change in food consumption at 1 mg/kg, ip administered on day 8, 9, 10, 11, 14, 18, 24 and 32 measured after 2 weeks relative to control; format: functional; details: route intraperitoneal

SMILES: CCCCCCCC/C=C\CCCCCCCC(=O)N[C@H](CO)C(C)C
- Activity [1]: -7.31%
- Activity [2]: -4.24%
- Activity [3]: 83.01 mg/dL
- Activity [4]: 1.017 mg/dL
- Activity [5]: -5.7%
- Activity [6]: -2.7%
- Activity [7]: -3.6%
- Activity [8]: -4.6%
- Activity [9]: -6%
- Activity [10]: -6.9%
- Activity [11]: -5.2%
- Activity [12]: Non-toxic
- inhibition [13]: 14%
- inhibition [14]: 18%
- inhibition [15]: 35%
- Activity [16]: -3.2%
- Activity [17]: 90%
- Activity [18]: Active
- Activity [19]: -6.4%
- Activity [20]: -1.8%
- Activity [21]: -2.4%
- Activity [22]: 93.8%
